Reference: US12052991B2, “Substituted pyridinyloxybenzenes and salts thereof and use thereof as herbicidal agents” (Bayer Aktiengesellschaft, priority 2018, dated 2024)

Assays:
Type in all cases: in vivo
[1] = test system: Echinochloa crus-galli (ECHCG); assay: Herbicidal post-emergence action (Table B1); settings: 1280 g/ha; rated visually after about 3 weeks; 100% = plants have died, 0% = like control plants
Experimental: (§1) Seeds of mono- and dicotyledonous weed plants were placed in plastic pots in sandy loam soil (doubly sown with in each case one species of mono- or dicotyledonous weed plants per pot), covered with soil and cultivated in a greenhouse under controlled growth conditions. 2 to 3 weeks after sowing, the test plants were treated at the one-leaf stage. The compounds of the invention, formulated in the form of wettable powders (WP) or as emulsion concentrates (EC), were applied onto the green parts of the plants as aqueous suspension or emulsion with addition of 0.5% additive at a water application rate of 600 liters per hectare (converted). After the test plants had been kept in the greenhouse under optimum growth conditions for about 3 weeks, the activity of the preparations was rated visually in comparison to untreated controls. For example, 100% activity=the plants have died, 0% activity=like control plants. Tables B1 to B12 below show the effects of selected compounds of the general formula (I) according to Table 1 on various harmful plants and an application rate corresponding to 1280 or 320 g/ha, which were obtained by the experimental procedure mentioned above.

Veronica persica (VERPE) [2] = assay: Herbicidal pre-emergence action, test C (Table C12); settings: dosage 1280 g/ha, visual scoring vs untreated controls
Source text: (§2) Seeds of mono- and dicotyledonous weed plants were placed in plastic pots in sandy loam soil (doubly sown with one species each of mono- or dicotyledonous weed plants per pot) and covered with soil. The compounds of the invention, formulated in the form of wettable powders (WP) or as emulsion concentrates (EC), were then applied onto the surface of the covering soil as aqueous suspension or emulsion with addition of 0.5% additive at a water application rate of 600 liters per hectare (converted). After the treatment, the pots were placed in a greenhouse and kept under good growth conditions for the test plants. After about 3 weeks, the effect of the preparations was scored visually in comparison with untreated controls as percentages. For example, 100% activity=the plants have died, 0% activity=like control plants. Tables C1 to C12 below show the effects of selected compounds of the general formula (I) according to Table 1 on various harmful plants and an application rate corresponding to 1280 or 320 g/ha, which were obtained by the experimental procedure mentioned above.

[3] = test system: Amaranthus retroflexus (AMARE); assay: Herbicidal pre-emergence action, test C (Table C6); settings: visual scoring after about 3 weeks, 100% = plants have died, 0% = like control plants
Source text: as §2

Stellaria media (STEME) [4] = assay: Herbicidal pre-emergence action, test C (Table C8); settings: visual scoring after about 3 weeks, 100% = plants have died, 0% = like control plants
Source text: as §2

[5] = test system: Abutilon theophrasti (ABUTH); assay: Herbicidal post-emergence action (Table B5); settings: rated visually after about 3 weeks, 100% = plants have died, 0% = like control plants
Experimental: as §1

Stellaria media (STEME) [6] = assay: Herbicidal post-emergence action (Table B8); settings: visual rating about 3 weeks after treatment, 100% = plants have died, 0% = like control plants
Experimental: as §1

[7] = test system: Amaranthus retroflexus (AMARE); assay: Herbicidal post-emergence action (Table B6); settings: visual rating about 3 weeks after treatment, 100% = plants have died, 0% = like control plants
Experimental: as §1

[8] = test system: Digitaria sanguinalis (DIGSA); assay: Herbicidal pre-emergence action, test C (Table C10); settings: dosage 1280 g/ha; visual scoring after about 3 weeks; 100% = plants have died, 0% = like control plants
Source text: as §2

Poa annua (POAAN) [9] = assay: Herbicidal pre-emergence action, test C (Table C3); settings: visual scoring after about 3 weeks, 100% = plants have died, 0% = like control plants
Source text: as §2

Poa annua (POAAN) [10] = assay: Herbicidal post-emergence action (Table B3); settings: rated visually after about 3 weeks, 100% = plants have died, 0% = like control plants
Experimental: as §1

[11] = test system: Matricaria inodora (MATIN); assay: Herbicidal pre-emergence action, test C (Table C7); settings: dosage 1280 g/ha; visual scoring after about 3 weeks; 100% = plants have died, 0% = like control plants
Source text: as §2

[12] = test system: harmful plants ABUTH, AMARE, ECHCG, LOLRI, MATIN, POAAN, SETVI, STEME, ALOMY, DIGSA, KCHSC and VERPE; assay: Herbicidal pre-emergence action (test C), summary of Tables C1-C12; settings: application rate of 1280 or 320 g of active ingredient per hectare; summary in words
Source text: as §2, with “percentages.” for “percentages. For example, 100% activity=the plants have died, 0% activity=like control plants. Tables C1 to C12 below show the effects of selected compounds of the general formula (I) according to Table 1 on various harmful plants and an application rate corresponding to 1280 or 320 g/ha, which were obtained by the experimental procedure mentioned above.”
(§3) For example, 100% activity=the plants have died, 0% activity=like control plants.
Tables C1 to C12 below show the effects of selected compounds of the general formula (I) according to Table 1 on various harmful plants and an application rate corresponding to 1280 or 320 g/ha, which were obtained by the experimental procedure mentioned above.
As the results of Tables C1-C12 show, compounds no.

[13] = test system: harmful plants ABUTH, AMARE, ECHCG, LOLRI, MATIN, POAAN, SETVI, STEME, ALOMY, DIGSA, KCHSC and VERPE; assay: Herbicidal post-emergence action, summary of Tables B1-B12; settings: application rate of 1280 or 320 g of active ingredient per hectare; summary in words
Experimental: as §1, with “controls.” for “controls. For example, 100% activity=the plants have died, 0% activity=like control plants. Tables B1 to B12 below show the effects of selected compounds of the general formula (I) according to Table 1 on various harmful plants and an application rate corresponding to 1280 or 320 g/ha, which were obtained by the experimental procedure mentioned above.”
as §3
Tables B1 to B12 below show the effects of selected compounds of the general formula (I) according to Table 1 on various harmful plants and an application rate corresponding to 1280 or 320 g/ha, which were obtained by the experimental procedure mentioned above.
As the results of Tables B1-B12 show, compounds no.

Veronica persica (VERPE) [14] = assay: Herbicidal post-emergence action (Table B12); settings: visual rating about 3 weeks after treatment, 100% = plants have died, 0% = like control plants
Experimental: as §1

Setaria viridis (SETVI) = assay: Herbicidal pre-emergence action, test C (Table C4); settings: visual scoring after about 3 weeks, 100% = plants have died, 0% = like control plants
Source text: as §2

Bassia scoparia (KCHSC) = assay: Herbicidal post-emergence action (Table B11); settings: dosage 1280 g/ha; visual rating about 3 weeks after treatment; 100% = plants have died, 0% = like control plants
Experimental: as §1

[15] = test system: Alopecurus myosuroides (ALOMY); assay: Herbicidal post-emergence action (Table B9); settings: 1280 g/ha; rated visually after about 3 weeks; 100% = plants have died, 0% = like control plants
Experimental: as §1

[16] = test system: Digitaria sanguinalis (DIGSA); assay: Herbicidal post-emergence action (Table B10); settings: dosage 1280 g/ha; visual rating about 3 weeks after treatment; 100% = plants have died, 0% = like control plants
Experimental: as §1

[17] = test system: Abutilon theophrasti (ABUTH); assay: Herbicidal pre-emergence action, test C (Table C5); settings: dosage 1280 g/ha; visual scoring after about 3 weeks; 100% = plants have died, 0% = like control plants
Source text: as §2

| SMILES | Pre-emergence action against Veronica persica (VERPE) (Veronica persica (VERPE) [2]) [%] | Pre-emergence action against Amaranthus retroflexus (AMARE) ([3]; dosage 320 g/ha) [%] | Pre-emergence action against Amaranthus retroflexus (AMARE) ([3]; dosage 1280 g/ha) [%] | Pre-emergence action against Stellaria media (STEME) (Stellaria media (STEME) [4]; dosage 320 g/ha) [%] | Pre-emergence action against Stellaria media (STEME) (Stellaria media (STEME) [4]; dosage 1280 g/ha) [%] | Post-emergence action against Abutilon theophrasti (ABUTH) ([5]; 1280 g/ha) [%] | Post-emergence action against Stellaria media (STEME) (Stellaria media (STEME) [6]; dosage 320 g/ha) [%] | Post-emergence action against Stellaria media (STEME) (Stellaria media (STEME) [6]; dosage 1280 g/ha) [%] | Post-emergence action against Amaranthus retroflexus (AMARE) ([7]; dosage 1280 g/ha) [%] | Pre-emergence action against Digitaria sanguinalis (DIGSA) [8] [%] | Pre-emergence action against Poa annua (POAAN) (Poa annua (POAAN) [9]; dosage 1280 g/ha) [%] | Post-emergence action against Poa annua (POAAN) (Poa annua (POAAN) [10]; 320 g/ha) [%] | Post-emergence action against Poa annua (POAAN) (Poa annua (POAAN) [10]; 1280 g/ha) [%] | Pre-emergence action against Matricaria inodora (MATIN) [11] [%] | herbicidal activity against the harmful plants of Tables C1-C12 in pre-emergence treatment [12] | herbicidal activity against the harmful plants of Tables B1-B12 in post-emergence treatment [13] | Post-emergence action against Veronica persica (VERPE) (Veronica persica (VERPE) [14]; dosage 320 g/ha) [%] | Post-emergence action against Veronica persica (VERPE) (Veronica persica (VERPE) [14]; dosage 1280 g/ha) [%] | Pre-emergence action against Setaria viridis (SETVI) (Setaria viridis (SETVI); dosage 1280 g/ha) [%] | Post-emergence action against Bassia scoparia (KCHSC) (Bassia scoparia (KCHSC)) [%] | further results |
| --- | --- | --- | --- | --- | --- | --- | --- | --- | --- | --- | --- | --- | --- | --- | --- | --- | --- | --- | --- | --- | --- |
| COc1ccc(-c2cc(C(F)F)no2)c(Oc2ccc(Cl)cn2)c1 [Example 1-39] | 100 | 100 | 100 | 100 | 100 | 90 | 100 | 100 | 100 | 90 | 100 | 100 | 100 | 90 | very good herbicidal activity | very good herbicidal activity | 100 | 100 | 90 | – | Post-emergence action against Echinochloa crus-galli (ECHCG) [1]: 90%; Post-emergence action against Amaranthus retroflexus (AMARE) ([7]; dosage 320 g/ha): 100%; Pre-emergence action against Poa annua (POAAN) (Poa annua (POAAN) [9]; dosage 320 g/ha): 100% |
| Cc1ccc(-c2ccccc2Oc2ccc(Cl)cn2)nc1 [Example 1-80] | 100 | 100 | 100 | – | – | 100 | – | 100 | 100 | 100 | 90 | – | – | 90 | very good herbicidal activity | very good herbicidal activity | 100 | 100 | 100 | – | – |
| FC(F)(F)c1ccc(-c2ccccc2Oc2ccc(Cl)cn2)nc1 [Example 1-67] | 100 | – | 100 | 100 | 100 | 100 | 100 | 100 | 100 | 100 | 100 | 100 | 100 | – | very good herbicidal activity | very good herbicidal activity | 100 | 100 | 100 | 90 | Post-emergence action against Abutilon theophrasti (ABUTH) ([5]; 320 g/ha): 90%; Post-emergence action against Alopecurus myosuroides (ALOMY) [15]: 90%; Post-emergence action against Digitaria sanguinalis (DIGSA) [16]: 90% |
| Cc1ccc(-c2cc(C(F)F)no2)c(Oc2ncc(Cl)cc2F)c1 [Example 1-27] | 100 | – | 90 | – | 90 | 90 | 100 | 100 | – | – | – | – | – | – | very good herbicidal activity | very good herbicidal activity | 100 | 100 | – | 90 | – |
| Cc1ccc(-c2cc(C(F)F)no2)c(Oc2ccccn2)c1 [Example 1-25] | 90 | 100 | 100 | 90 | 100 | 90 | – | 100 | – | – | 90 | – | – | 90 | very good herbicidal activity | very good herbicidal activity | – | – | 100 | – | Pre-emergence action against Abutilon theophrasti (ABUTH) [17]: 100%; Post-emergence action against Digitaria sanguinalis (DIGSA) [16]: 100%; Pre-emergence action against Setaria viridis (SETVI) (Setaria viridis (SETVI); dosage 320 g/ha): 100% |
